According to ChEMBL document CHEMBL6092167, “Phosphorylation as an Effective Tool to Improve Stability and Reduce Toxicity of Antimicrobial Peptides” (J Med Chem, 2024):
Converted amounts (≈) assume the structure as drawn. The source made the active and inactive calls. The calls are words filed in the database; no cut-off is given here. Non-standard residues stand in square brackets, D forms with d. Residues, ends and D or L forms follow the SMILES beside them. Bip = N[C@@H](Cc1ccc(-c2ccccc2)cc1)C(=O)O

Experiments:
Cell membrane [1] = assay: Induction of inner membrane permeabilization in Escherichia coli ML-35 assessed as increase in […] intensity by ONPG dye based microplate reader assay; format: subcellular
Cell membrane [2] = assay: Induction of cell membrane disruption in Staphylococcus aureus ATCC 25923 at 2 times MIC incubated for 2 hrs by SEM analysis; format: subcellular
Escherichia coli [3] = assay: Antibacterial activity against Escherichia coli ATCC 25922 incubated for 18 to 24 hrs by broth microdilution method; format: functional; details: time 18-24 hrs
Klebsiella pneumoniae [4] = assay: Antibacterial activity against Klebsiella pneumoniae ATCC 700603 incubated for 18 to 24 hrs by broth microdilution method; format: functional; details: time 18-24 hrs
Pseudomonas aeruginosa [5] = assay: Antibacterial activity against Pseudomonas aeruginosa ATCC 27853 incubated for 18 to 24 hrs by broth microdilution method; format: functional; details: time 18-24 hrs
Klebsiella pneumoniae [6] = assay: Synergistic antibacterial activity against Klebsiella pneumoniae ATCC 700603 assessed as fractional inhibitory concentration index at 1/4 to 4 times MIC incubated for 18 to 24 hrs in presence of polymyxin B by checkerboard assay; format: functional; details: time 18-24 hrs
Cell membrane [7] = assay: Induction of membrane damage in Pseudomonas aeruginosa ATCC 27853 assessed as change in membrane shape at 2 times MIC incubated for 30 to 120 mins by SEM analysis; format: subcellular; details: time 30-120 min
Acinetobacter baumannii = assay: Antibacterial activity against Acinetobacter baumannii ATCC 19606 incubated for 18 to 24 hrs by broth microdilution method; format: functional; details: time 18-24 hrs
Escherichia coli [8] = assay: Antibiofilm activity against Escherichia coli ATCC 25922 assessed as eradication of preformed biofilms at 2 to 4 times MIC incubated for 24 hrs by crystal violet staining based assay; format: functional, organism-based
Klebsiella pneumoniae [9] = assay: Durg resistance development in Klebsiella pneumoniae ATCC 700603 measured after 20 passage; format: functional, organism-based
Klebsiella pneumoniae [10] = assay: Antibiofilm activity against Klebsiella pneumoniae ATCC 700603 assessed as eradication of preformed biofilms incubated for 24 hrs by crystal violet staining based assay; format: functional, organism-based
Staphylococcus aureus [11] = assay: Antibacterial activity against methicillin resistant Staphylococcus aureus ATCC 33591 incubated for 18 to 24 hrs by broth microdilution method; format: functional; details: time 18-24 hrs
Klebsiella pneumoniae [12] = assay: Additive antibacterial activity against Klebsiella pneumoniae ATCC 700603 assessed as fractional inhibitory concentration index at 1/4 to 4 times MIC incubated for 18 to 24 hrs in presence of rifampicin by checkerboard assay; format: functional; details: time 18-24 hrs
Trypsin = Trypsin (Homo sapiens, UniProt P07477+P07478+P35030); assay: Stability of compound assessed as trypsin (unknown origin) mediated compound degradation; format: ADME, protein assay
Cell membrane [13] = assay: Induction of cell membrane disruption in Pseudomonas aeruginosa ATCC 27853 at 2 times MIC incubated for 2 hrs by SEM analysis; format: subcellular
Pseudomonas aeruginosa [14] = assay: Inhibition of biofilm formation in Pseudomonas aeruginosa ATCC 27853 incubated for 24 hrs by crystal violet staining based assay; format: functional, organism-based
Klebsiella pneumoniae [15] = assay: Additive antibacterial activity against Klebsiella pneumoniae ATCC 700603 assessed as fractional inhibitory concentration index at 1/4 to 4 times MIC incubated for 18 to 24 hrs in presence of kanamycin by checkerboard assay; format: functional; details: time 18-24 hrs
Pseudomonas aeruginosa [16] = assay: Antibiofilm activity against Pseudomonas aeruginosa ATCC 27853 assessed as eradication of preformed biofilms incubated for 24 hrs by crystal violet staining based assay; format: functional, organism-based
Escherichia coli [17] = assay: Antibacterial activity against Escherichia coli 850 incubated for 18 to 24 hrs by broth microdilution method; format: functional; details: time 18-24 hrs
Staphylococcus aureus [18] = assay: Antibiofilm activity against Staphylococcus aureus ATCC 25923 assessed as eradication of preformed biofilms incubated for 24 hrs by crystal violet staining based assay; format: functional, organism-based
Chymotrypsin = Chymotrypsin (Homo sapiens, UniProt Q99895+P17538+P40313+Q6GPI1); assay: Stability of compound assessed as chymotrypsin (unknown origin) mediated compound degradation; format: ADME, protein assay
Klebsiella pneumoniae [19] = assay: Antibiofilm activity against Klebsiella pneumoniae ATCC 700603 assessed as eradication of preformed biofilms at 2 to 4 times MIC incubated for 24 hrs by crystal violet staining based assay; format: functional, organism-based
Pseudomonas aeruginosa [20] = assay: Antibiofilm activity against Pseudomonas aeruginosa ATCC 27853 assessed as eradication of preformed biofilms at 4 times MIC incubated for 24 hrs by crystal violet staining based assay; format: functional, organism-based
Staphylococcus aureus [21] = assay: Inhibition of biofilm formation in Staphylococcus aureus ATCC 25923 at 1 time MIC incubated for 24 hrs by crystal violet staining based assay; format: functional, organism-based
Klebsiella pneumoniae [22] = assay: Inhibition of kanamycin resistance in Klebsiella pneumoniae ATCC 700603 at 1:1 compound: kanamycin molar ratio measured after 20 generation; format: functional, organism-based
Klebsiella pneumoniae [23] = assay: Antibacterial activity against kanamycin resistant Klebsiella pneumoniae; format: functional
[24] = Toxicity in ip dosed BALB/c mouse measured after 14 days; format: organism-based; details: in vivo, time 14 day
Klebsiella pneumoniae [25] = assay: Inhibition of rifampicin resistance in Klebsiella pneumoniae ATCC 700603 at 1:1 compound: rifampicin molar ratio measured after 20 generation; format: functional, organism-based
Escherichia coli [26] = assay: Antibiofilm activity against Escherichia coli ATCC 25922 assessed as eradication of preformed biofilms incubated for 24 hrs by crystal violet staining based assay; format: functional, organism-based
Staphylococcus aureus [27] = assay: Antibacterial activity against methicillin resistant Staphylococcus aureus 48 incubated for 18 to 24 hrs by broth microdilution method; format: functional; details: time 18-24 hrs
Escherichia coli [28] = assay: Antibacterial activity against Escherichia coli 25922 assessed as interaction with LPS by measuring bacterial mortality at 2 times MIC preincubated with LPS for 1 hr followed by bacterial addition and measured after overnight by microplate reader assay; format: functional, organism-based
Cell membrane [29] = assay: Induction of cytoplasmic membrane rupture in Staphylococcus aureus ATCC 25923 assessed as shrinkage at 2 times MIC incubated for 30 to 120 mins by SEM analysis; format: subcellular; details: time 30-120 min
Cell membrane [30] = assay: Induction of inner membrane permeabilization in Escherichia coli ML-35 assessed as increase in […] intensity measured every 5 mins for 135 mins by ONPG dye based microplate reader assay; format: subcellular
Cell membrane [31] = assay: Induction of outer membrane permeabilization in Escherichia coli ATCC 25922 assessed as increase in fluorescence intensity incubated for 1 min by NPN dye based microplate reader assay; format: subcellular
[32] = Cytotoxicity against HEK293T cells incubated for 1 hr by fluorescence based microplate reader assay; format: toxicity, cell-based, HEK-293T; details: human
Klebsiella pneumoniae [33] = assay: Inhibition of biofilm formation in Klebsiella pneumoniae ATCC 700603 incubated for 24 hrs by crystal violet staining based assay; format: functional, organism-based
Escherichia coli [34] = assay: Inhibition of biofilm formation in Escherichia coli ATCC 25922 incubated for 24 hrs by crystal violet staining based assay; format: functional, organism-based
Cell membrane [35] = assay: Induction of cytoplasmic membrane rupture in Staphylococcus aureus ATCC 25923 assessed as adhesion at 2 times MIC incubated for 30 to 120 mins by SEM analysis; format: subcellular; details: time 30-120 min
Cell membrane [36] = assay: Induction of cytoplasmic membrane rupture in Pseudomonas aeruginosa ATCC 27853 assessed as leakage of cellular content at 2 times MIC incubated for 30 to 120 mins by SEM analysis; format: subcellular; details: time 30-120 min
Cell membrane [37] = assay: Induction of cytoplasmic membrane rupture in Staphylococcus aureus ATCC 25923 assessed as content leakage at 2 times MIC incubated for 30 to 120 mins by SEM analysis; format: subcellular; details: time 30-120 min
Cell membrane [38] = assay: Induction of cytoplasmic membrane rupture in Pseudomonas aeruginosa ATCC 27853 assessed as blistering at 2 times MIC incubated for 30 to 120 mins by SEM analysis; format: subcellular; details: time 30-120 min
Escherichia coli [39] = assay: Antibacterial activity against Escherichia coli 780 incubated for 18 to 24 hrs by broth microdilution method; format: functional; details: time 18-24 hrs

CC(C)C[C@H](NC(=O)[C@H](CC(C)C)NC(=O)[C@H](Cc1ccc(O)cc1)NC(=O)[C@H](CCCCN)NC(=O)[C@H](CC(C)C)NC(=O)[C@H](CCCNC(=N)N)NC(=O)[C@H](CCCCN)NC(=O)[C@H](Cc1ccc(-c2ccccc2)cc1)NC(=O)[C@H](CC(C)C)NC(=O)CN)C(N)=O (H-GL[Bip]KRLKYLL-NH2)
Activity (Cell membrane [1]): Time-dependent-effect; More Potent Than 1% Triton X-100 And Polymyxin B | Activity (Cell membrane [2]): Active; More Potent Than Polymyxin B And Vancomycin | MIC (Escherichia coli [3]): 8 µM (≈ 10.6 µg/mL) | MIC (Klebsiella pneumoniae [4]): 8 µM (≈ 10.6 µg/mL) | MIC (Pseudomonas aeruginosa [5]): 8 µM (≈ 10.6 µg/mL) | fractional inhibitory concentration index (FICI) (Klebsiella pneumoniae [6]): 0.5 | Activity (Cell membrane [7]): Active | MIC (Acinetobacter baumannii): 8 µM (≈ 10.6 µg/mL) | Activity (Escherichia coli [8]): Active | Activity (Klebsiella pneumoniae [9]): inactive | Activity (Klebsiella pneumoniae [10]): Dose-dependent-effect; Superior Activity Compared To Polymyxin B And Vancomycin | MIC (Staphylococcus aureus [11]): 8 µM (≈ 10.6 µg/mL) | fractional inhibitory concentration index (FICI) (Klebsiella pneumoniae [12]): 0.563 | Stability (Trypsin): Stable | Activity (Cell membrane [13]): Active; More Potent Than Polymyxin B And Vancomycin | inhibition (Pseudomonas aeruginosa [14]): Dose-dependent-effect; Inhibition Comparable To Polymyxin B | fractional inhibitory concentration index (FICI) (Klebsiella pneumoniae [15]): 0.563 | Activity (Pseudomonas aeruginosa [16]): Dose-dependent-effect; Superior Activity Compared To Polymyxin B And Vancomycin | MIC (Escherichia coli [17]): 8 µM (≈ 10.6 µg/mL) | Activity (Staphylococcus aureus [18]): Dose-dependent-effect; Superior Activity Compared To Polymyxin B And Vancomycin | Stability (Chymotrypsin): Stable | Activity (Klebsiella pneumoniae [19]): Active | Activity (Pseudomonas aeruginosa [20]): Active | inhibition (Staphylococcus aureus [21]): Active | inhibition (Klebsiella pneumoniae [22]): Active | MIC (Klebsiella pneumoniae [23]): 8 µM (≈ 10.6 µg/mL) | LD50 at 336 h [24]: 66.7 mg/kg | inhibition (Klebsiella pneumoniae [25]): Active | Activity (Escherichia coli [26]): Dose-dependent-effect; Superior Activity Compared To Polymyxin B And Vancomycin | MIC (Staphylococcus aureus [27]): 8 µM (≈ 10.6 µg/mL) | Activity (Escherichia coli [28]): Active; Activity Comparable To Polymyxin B | Activity (Cell membrane [29]): Active | Activity (Cell membrane [30]): Dose-dependent-effect; More Potent Than 1% Triton X-100 And Polymyxin B | Activity (Cell membrane [31]): Dose-dependent-effect | CC50 at 1 h [32]: 50.9 µM | inhibition (Klebsiella pneumoniae [33]): Dose-dependent-effect; Inhibition Comparable To Polymyxin B | inhibition (Escherichia coli [34]): Dose-dependent-effect; Inhibition Comparable To Polymyxin B | Activity (Cell membrane [35]): Active | Activity (Cell membrane [36]): Active | Activity (Cell membrane [37]): Active | Activity (Cell membrane [38]): Active | MIC (Escherichia coli [39]): 8 µM (≈ 10.6 µg/mL)
